This note sets out measurements from publication PMC10294659, “Cryo-EM Structures of the Klebsiella pneumoniae AcrB Multidrug Efflux Pump” (mBio, 2023).

Experiment [1] deals with T1, KpAcrB (K. pneumoniae AcrB multidrug efflux pump) (Klebsiella pneumoniae, UniProt W9B4M6).
T1 construct: full-length, 1,048 residues (model 1-1033), N-terminal 6xHis tag, pET15b, expressed in E. coli BL21(DE3) delta-acrB; homotrimer; in DDM for MST, in MSP1E3D1 lipid nanodiscs for cryo-EM
The experiment can be described thus: microscale thermophoresis (label-free); cryo-EM structure of the complex also solved. Format: binding. (In MST a laser heats a spot of the sample, and binding alters the fluorescence response.)

Experiment [2] addresses Klebsiella pneumoniae AcrB multidrug efflux pump (Klebsiella pneumoniae) (UniProt W9B4M6). The experiment can be described thus: cryo-EM structure; single-particle cryo-EM of 10 uM KpAcrB in lipidic nanodiscs (MSP 1E3D1, E. coli total extract lipid; 20 mM Tris-HCl pH 7.5, 100 mM NaCl); apo, and after 2 h with 500 uM erythromycin.

Turning to `CC[C@H]1OC(=O)[C@H](C)[C@@H](O[C@H]2C[C@@](C)(OC)[C@@H](O)[C@H](C)O2)[C@H](C)[C@@H](O[C@@H]2O[C@H](C)C[C@H](N(C)C)[C@H]2O)[C@](C)(O)C[C@@H](C)C(=O)[C@H](C)[C@@H](O)[C@]1(C)O` [erythromycin], the affinity in experiment [1], expressed as Kd, was 14.4 ± 2.6 µM.

Regarding “Klebsiella pneumoniae AcrB multidrug efflux pump (from UniProt W9B4M6 1-1048) (natural protein)”, in experiment [2], the stoichiometry N (commonly a count of units in the complex or per binding partner) came to 3.
